Measurements from PMC8719441, “Tonoplast-Localized Theanine Transporter CsCAT2 May Mediate Theanine Storage in the Root of Tea Plants (Camellia sinensis L.)” (Frontiers in Plant Science, 2021).

B1: CsCAT2 (Camellia sinensis) (protein)
chain: MGFRCDSQNDGGACPWTCGFKGLIRRKQVDSIHAKSSGSGHHQLAKELSVFHLIAIGVGSTIGAGVYILVGTVAREHSGPALTFSFLIAGIAAALSAFCYAELASRCPSAGSAYHYSYICVGEGVAWLIGWALILEYTIGGSAVARGISPNLALLFGGADSLPFFLARQHLPGLDIVVDPCAALLVIVVTGLLCVGIKESTLVQSIVTTANVCAMLFVIIAGGYLGFKSGWVGYELPVGYFPFGVDGMLAGAATVFFAYIGFDSVASTAEEVKNPQRDLPLGIAAALSICCMLYMLVSVVIVGLVPYYAMDPDTPISSAFASHGMQWAAYIITAGATTALCSTLMGSMLPQPRILMAMSRDGLLPSIFSDVNKRTQVPIKSTVITGVVAAILAFIMDVEQLAGMVSVGTLLAFTMVAISVLILRYVPPDEVPIPSSLQESIDSVSLRYSTSNDNIEEEKPKDHIGSSTQSTRLLLGKVDRPIAYPLIPKQAATILNDNRRKIAGWTIMFTCVGVLLLTSAASSVGLLPSYFRFGVCGIGVVLILSGLVVLTCIDQDDARHSFGHTGGFICPFVPLLPIACVLINVYLLINLGSATWTRVSIWLLIGVLVYAFYGRTHSSLKDAVYVPATHVEEIYRSSENSLP
notes: no tag mentioned

Each molecule was assayed on CCNC(=O)CC[C@H](N)C(=O)O (assay: cells, lysate or membranes). Settings: 0.09375-8 mM theanine, 0-20 min, after 2 h nitrogen starvation; H+-coupled.
Format: cell-based, Camellia sinensis

Row | Molecule | Km
1 | B1 | 0.45 mM

What follows are molecules tested against T1, CsCAT2 (Camellia sinensis, UniProt A0A2R3U877) (assay: competition with theanine uptake in yeast […]Δ[…]α-CsCAT2, HPLC-UV; growth on sole nitrogen source). Settings: 200 μM theanine, 10 min.
T1 construct: gene CAT2; no tag mentioned
Format: cell-based

Row | Molecule | % theanine uptake at 2 mM competitor
2 | C[C@H](N)C(=O)O [alanine] | CsCAT2's capacity to transport theanine was significantly suppressed by these amino acids
3 | N[C@@H](CC(=O)O)C(=O)O [aspartic acid] | CsCAT2's capacity to transport theanine was significantly suppressed by these amino acids
4 | N[C@@H](CCC(=O)O)C(=O)O [glutamate] | CsCAT2's capacity to transport theanine was significantly suppressed by these amino acids
5 | NC(=O)CC[C@H](N)C(=O)O [glutamine] | CsCAT2's capacity to transport theanine was significantly suppressed by these amino acids
6 | CC(C)[C@H](N)C(=O)O [valine] | CsCAT2's capacity to transport theanine was significantly suppressed by these amino acids
